Assay results reported in ChEMBL document CHEMBL4382202, “1-(2-Hydroxybenzoyl)-thiosemicarbazides are promising antimicrobial agents targeting d-alanine-d-alanine ligase in bacterio” (Eur J Med Chem, 2018).
Calls of active or inactive are those of the source. No cut-off for these calls is given here.

Key:
[1] = target: Tyrosine-protein kinase Lck (Homo sapiens) (UniProt P06239); assay: Inhibition of human recombinant Lck at 10 uM using Ulight-Poly GAT[EAY(1:1:1)]n as substrate after 10 mins by LANCE analysis relative to control
[2] = target: T1, D-alanine--D-alanine ligase (Enterococcus faecalis (strain ATCC 700802 / V583)) (UniProt Q47758); assay: Mixed non-competitive type inhibition of Enterococcus faecalis JH2-2 C-terminal 6His-tagged DdlB expressed in Escherichia coli LMG194 at 1 to 10 uM preincubated for 30 mins followed increasing substrate and fixed ATP addition and measured after 20 mins by Biomol Green reagent assay
T1 sequence (whole entry): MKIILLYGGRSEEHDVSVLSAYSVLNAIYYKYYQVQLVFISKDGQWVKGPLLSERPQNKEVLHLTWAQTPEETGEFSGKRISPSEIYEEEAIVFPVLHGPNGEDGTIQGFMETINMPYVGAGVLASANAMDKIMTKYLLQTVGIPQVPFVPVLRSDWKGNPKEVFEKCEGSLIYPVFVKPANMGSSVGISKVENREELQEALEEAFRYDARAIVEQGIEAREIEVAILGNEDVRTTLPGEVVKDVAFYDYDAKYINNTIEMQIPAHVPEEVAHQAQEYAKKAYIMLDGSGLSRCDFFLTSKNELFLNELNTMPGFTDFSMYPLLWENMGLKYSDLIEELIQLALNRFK

[3] = target: DNA gyrase (Escherichia coli) (UniProt P0AES6+P0AES4); assay: Inhibition of Escherichia coli DNA gyrase at 10 uM using supercoiled pBR322 DNA as substrate after 1 hr by ethidium bromide staining-based agarose gel electrophoresis relative to control; type: protein-complex assay
[4] = target: T1, D-alanine--D-alanine ligase (Enterococcus faecalis (strain ATCC 700802 / V583)); assay: Reversible inhibition of Enterococcus faecalis JH2-2 C-terminal 6His-tagged DdlB expressed in Escherichia coli LMG194 at 3 uM preincubated for 30 mins followed by 10 times dilution followed by 20 mins incubation with substrate by Biomol Green reagent assay
Escherichia coli = assay: Antibacterial activity against Escherichia coli ATCC 25922 after 18 to 24 hrs by microdilution assay; type: functional, organism-based
[5] = target: DNA gyrase (Staphylococcus aureus) (UniProt P0A0K8+P20831); assay: Inhibition of Staphylococcus aureus DNA gyrase at 10 uM using supercoiled pBR322 DNA as substrate after 1 hr by ethidium bromide staining-based agarose gel electrophoresis relative to control; type: protein-complex assay
[6] = target: Prothrombin (Homo sapiens) (UniProt P00734); assay: Inhibition of human thrombin at 10 uM using Z-GPR-AMC as substrate after 30 mins by fluorimetric analysis relative to control
[7] = target: D-3-phosphoglycerate dehydrogenase (Homo sapiens) (UniProt O43175); assay: Inhibition of human recombinant C-terminal His-tagged PHGDH (1 to 533 residues) expressed in Escherichia coli at 10 uM using 3-phosphoglycerate as substrate relative to control
Sequence of D-3-phosphoglycerate dehydrogenase (Homo sapiens) (O43175 whole entry, the tested form may be a part): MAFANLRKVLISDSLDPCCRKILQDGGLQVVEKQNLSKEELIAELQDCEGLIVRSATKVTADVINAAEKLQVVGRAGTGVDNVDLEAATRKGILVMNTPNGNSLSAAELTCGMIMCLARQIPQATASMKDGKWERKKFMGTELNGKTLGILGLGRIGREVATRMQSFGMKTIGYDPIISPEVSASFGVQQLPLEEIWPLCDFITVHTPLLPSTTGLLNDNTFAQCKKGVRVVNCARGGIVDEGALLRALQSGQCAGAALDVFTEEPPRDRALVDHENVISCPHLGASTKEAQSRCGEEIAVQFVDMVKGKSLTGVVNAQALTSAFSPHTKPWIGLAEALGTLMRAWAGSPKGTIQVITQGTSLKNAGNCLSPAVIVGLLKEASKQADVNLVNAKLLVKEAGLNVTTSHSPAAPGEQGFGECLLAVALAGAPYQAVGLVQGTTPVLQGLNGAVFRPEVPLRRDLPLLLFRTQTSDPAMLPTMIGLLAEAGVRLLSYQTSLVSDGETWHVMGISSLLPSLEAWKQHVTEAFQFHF

Sequence of Tyrosine-protein kinase Lck (Homo sapiens) (P06239 2-509 limits assumed): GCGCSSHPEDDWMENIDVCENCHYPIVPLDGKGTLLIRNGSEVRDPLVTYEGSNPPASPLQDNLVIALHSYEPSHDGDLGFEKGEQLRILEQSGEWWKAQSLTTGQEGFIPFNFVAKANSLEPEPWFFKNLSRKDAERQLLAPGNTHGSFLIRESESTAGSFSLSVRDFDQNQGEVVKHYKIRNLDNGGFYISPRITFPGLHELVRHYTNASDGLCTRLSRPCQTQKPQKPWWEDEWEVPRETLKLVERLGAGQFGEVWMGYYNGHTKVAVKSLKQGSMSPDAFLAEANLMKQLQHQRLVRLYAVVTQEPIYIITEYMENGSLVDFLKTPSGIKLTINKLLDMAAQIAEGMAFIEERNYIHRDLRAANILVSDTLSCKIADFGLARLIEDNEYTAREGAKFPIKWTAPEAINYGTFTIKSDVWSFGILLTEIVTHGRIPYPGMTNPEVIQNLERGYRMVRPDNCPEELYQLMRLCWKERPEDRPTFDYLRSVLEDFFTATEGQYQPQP
Sequence of DNA gyrase (Staphylococcus aureus) (P0A0K8 2-644 limits assumed): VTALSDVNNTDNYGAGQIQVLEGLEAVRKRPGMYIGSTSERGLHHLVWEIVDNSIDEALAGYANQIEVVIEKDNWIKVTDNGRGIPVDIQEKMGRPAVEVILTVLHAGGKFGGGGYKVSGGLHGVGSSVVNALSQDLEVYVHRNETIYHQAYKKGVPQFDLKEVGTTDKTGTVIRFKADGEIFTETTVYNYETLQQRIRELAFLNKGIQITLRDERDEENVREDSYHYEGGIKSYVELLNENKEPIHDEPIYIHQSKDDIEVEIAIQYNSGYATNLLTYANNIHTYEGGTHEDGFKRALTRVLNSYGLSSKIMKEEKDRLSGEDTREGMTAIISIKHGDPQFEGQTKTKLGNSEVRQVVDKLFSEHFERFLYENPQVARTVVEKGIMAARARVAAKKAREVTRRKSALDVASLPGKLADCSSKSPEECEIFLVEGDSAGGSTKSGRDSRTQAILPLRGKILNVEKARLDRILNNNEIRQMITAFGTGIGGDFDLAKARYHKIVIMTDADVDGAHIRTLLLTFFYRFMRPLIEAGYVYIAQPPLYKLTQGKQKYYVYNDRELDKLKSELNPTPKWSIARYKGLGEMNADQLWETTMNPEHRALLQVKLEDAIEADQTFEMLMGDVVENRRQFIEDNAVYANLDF
Sequence of DNA gyrase (Staphylococcus aureus) (P20831 whole entry partner): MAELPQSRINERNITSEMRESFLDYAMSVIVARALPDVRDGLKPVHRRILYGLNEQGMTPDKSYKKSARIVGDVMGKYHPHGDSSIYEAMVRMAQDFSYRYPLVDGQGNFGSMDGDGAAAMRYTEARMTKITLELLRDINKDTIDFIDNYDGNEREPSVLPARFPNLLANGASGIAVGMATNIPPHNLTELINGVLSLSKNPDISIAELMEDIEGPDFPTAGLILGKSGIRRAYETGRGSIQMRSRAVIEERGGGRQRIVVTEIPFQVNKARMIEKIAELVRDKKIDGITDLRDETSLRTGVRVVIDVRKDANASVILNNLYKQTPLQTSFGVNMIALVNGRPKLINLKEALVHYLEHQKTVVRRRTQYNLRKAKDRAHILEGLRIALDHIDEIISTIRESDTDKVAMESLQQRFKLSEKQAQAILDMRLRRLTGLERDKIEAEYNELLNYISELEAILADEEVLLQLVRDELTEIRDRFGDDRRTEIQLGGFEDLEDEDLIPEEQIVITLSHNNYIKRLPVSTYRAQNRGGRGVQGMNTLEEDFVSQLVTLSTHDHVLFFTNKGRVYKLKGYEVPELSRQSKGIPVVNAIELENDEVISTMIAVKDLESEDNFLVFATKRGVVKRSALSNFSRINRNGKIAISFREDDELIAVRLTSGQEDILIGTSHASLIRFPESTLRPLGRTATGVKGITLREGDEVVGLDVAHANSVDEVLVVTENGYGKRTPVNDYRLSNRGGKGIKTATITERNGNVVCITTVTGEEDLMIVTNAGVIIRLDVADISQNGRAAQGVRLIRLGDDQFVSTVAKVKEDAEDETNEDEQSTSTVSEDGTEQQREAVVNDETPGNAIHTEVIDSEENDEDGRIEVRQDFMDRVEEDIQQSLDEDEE

With `O=C(NNC(=S)Nc1ccc(Cl)c(Cl)c1)c1ccccc1O` the inhibition [1] was less than 30%, the inhibition [2] was “Active” and the inhibition [3] was less than 30%. The inhibition [4] was “Active”, the MIC (Escherichia coli) was “inactive” and the inhibition [5] was less than 30%. The inhibition [6] was less than 30% and the inhibition [7] was less than 30%.
